According to US6998144B2, “Method of improving sweetness delivery of sucralose” (McNeil-PPC, Inc., priority 1998, dated 2006):
Residues, ends and D or L forms follow the SMILES beside them.

Experiments:
trained panelists = experiment: Sweetness time-intensity study of equally sweet solutions, 12 trained panelists; type: in vivo
Description: The data in Table 1 (“STIME”) in the Examples below correlate with the curves shown in this Figure. Imax: maximum intensity recorded. Tmax: first time that maximum intensity was recorded. Tend: last time that a non-zero intensity was recorded. Tdec50: last time that an intensity greater than 50% of Imax was recorded (i.e. the time at which the intensity had decreased to 50% of Imax). Tdec10: same as for Tdec50, but at 10% of Imax. Area: area under the curve. Tdecline: time interval from Tmax to Tdec10. The experiments giving rise to the data in this Figure and Table 1 are described in Example 1 below.
The data in Table 2 (“ATIME”) in the Examples below correlate with the curves shown in this Figure. These curve parameters, as shown in the Table, are defined as per those in FIG. 1. The experiments giving rise to the data in this Figure are described in Example 1 below.
For sweetness time-intensity studies, room temperature equally sweet solutions were presented to 12 trained panelists. The panelists had been screened for general sensory acuity and trained in general methods for sweetener assessment as well as time-intensity methods. […]
The data collected by the computer were read every second, for a total of 180 data points per tasting. Mean panelist response was calculated for each time data point. […]

trained evaluators = experiment: Determination of equally sweet levels in bottled water by a panel of six trained evaluators; type: in vivo; conditions: for equally sweet level: sweetener alone in bottled water
From the text: A panel of six trained evaluators determined equally sweet levels of sucralose, sucralose+DHB, aspartame, and aspartame+DHB, all in bottled water. […] Previous evaluations had shown 15 ppm DHB as optimal for taste alteration in sucralose products. Greater than 50 ppm DHB, in pure water solutions, has a slightly sweet taste and contributes to the total taste of the solution.

Row | SMILES | sweetness delivery profile of aspartame (trained panelists; effect of DHB on aspartame) | length of time during which sucralose sweetness is perceived (trained panelists; effect of DHB on sucralose) | DHB level that has a slightly sweet taste and contributes to the total taste (trained evaluators; pure water solutions) | DHB level optimal for taste alteration (trained evaluators; sucralose products, previous evaluations) [ppm] | equally sweet level (trained evaluators) [ppm]
1 | O=C(O)c1ccc(O)cc1O [DHB, 2,4-dihydroxybenzoic acid] | does not alter | significantly reduces | Greater than 50 ppm | 15 | 
2 | OC[C@H]1O[C@H](O[C@]2(CCl)O[C@H](CCl)[C@@H](O)[C@@H]2O)[C@H](O)[C@@H](O)[C@H]1Cl [Sample 1, 1,6-dichloro-1,6-dideoxy-β-D-fructofuranosyl-4-chloro-4-deoxy-α-D-galactopyranoside, reference compound] |  |  |  |  | 200
3 | COC(=O)[C@H](Cc1ccccc1)NC(=O)[C@@H](N)CC(=O)O [Sample 1, N-L-α-aspartyl-L-phenylalanine methyl ester, reference compound] (H-Asp-Phe-OMe) |  |  |  |  | 550
